Measured values reported in the supplement of paper PMC10307832.

Tests used:
Test in all cases: relative viability (nuclei count vs DMSO), 5 days (fraction); higher = more cells survive
[1] = compound: Cc1nc(C(=O)NCC(=O)O)c(O)c2ccc(Oc3ccccc3)cc12 [FG-4592] + CC(C)C[C@H](NC(=O)[C@H](Cc1ccccc1)NC(=O)c1cnccn1)B(O)O [Bortezomib] (partner 0.002 µM)
How it was run: (§1)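 Lung cancer cell lines were pin-tool dosed in 1536-well plates on the day after seeding, with either a lone drug or a fixed anchor-drug dose plus five library-drug doses (not always all listed) in √10 steps. Nuclei were counted on 4× images after 5 days. Relative viability is the ratio of treated-well to vehicle-well nuclei counts, with each value a median of duplicate plates.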

[2] = compound: CC1=CC(=C(N1C2=CC=C(C=C2)Cl)C)C(=O)CN3CCCCC3 [IU1-47] + Cc1nc(NC(=O)N2CCC[C@H]2C(N)=O)sc1-c1ccnc(C(C)(C)C(F)(F)F)c1 [Alpelisib] (partner 2 µM)
How it was run: as §1

[3] = compound: CC1=CC(=C(N1C2=CC=C(C=C2)Cl)C)C(=O)CN3CCCCC3 [IU1-47]
How it was run: (§2)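 Five library-drug doses, separated by factors of √10, were pinned into 1536-well plates holding lung cancer cell lines after an overnight stay at 37 °C. Cells were fixed, permeabilised and Hoechst-stained in one step after 5 days without medium change, then imaged at 4×. Viability compares treated-well with vehicle-well nuclei, counted in MetaXpress, as a median across plates. Passing plates had control CV below 25% and at least one doubling.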

[4] = compound: Cc1nc(C(=O)NCC(=O)O)c(O)c2ccc(Oc3ccccc3)cc12 [FG-4592]
How it was run: as §2

Row | Cell Line | relative viability ([1]; first compound 0.08 µM) | relative viability ([1]; first compound 0.253 µM) | relative viability ([1]; first compound 0.8 µM) | relative viability ([1]; first compound 2.53 µM) | relative viability ([1]; first compound 8 µM) | relative viability ([2]; first compound 0.08 µM) | relative viability ([2]; first compound 0.253 µM) | relative viability ([2]; first compound 0.8 µM) | relative viability ([2]; first compound 2.53 µM) | relative viability ([2]; first compound 8 µM) | relative viability ([3]; 0.08 µM) | relative viability ([3]; 0.253 µM) | relative viability ([3]; 0.8 µM) | relative viability ([3]; 2.53 µM) | relative viability ([3]; 8 µM) | relative viability ([4]; 0.08 µM) | relative viability ([4]; 0.253 µM) | relative viability ([4]; 0.8 µM) | relative viability ([4]; 2.53 µM) | relative viability ([4]; 8 µM)
1 | NCI-H1975 | 0.369 | 0.318 | 0.34 | 0.4 | 0.307 | 0.684 | 0.619 | 0.708 | 0.659 | 0.444 | 0.963 | 0.943 | 1.06 | 0.968 | 0.842 | 1 | 0.881 | 0.9 | 0.839 | 0.861
2 | CAL-12T | 1.05 | 1.07 | 0.601 | 1.15 | 0.902 | 1.31 | 1.39 | 1.47 | 1.18 | 0.823 | 0.916 | 0.919 | 1.03 | 0.826 | 0.879 | 0.973 | 0.864 | 1.05 | 0.906 | 0.894
3 | NCI-H1623 |  |  |  |  |  |  |  |  |  |  | 1.04 | 0.981 | 0.974 | 0.812 | 0.882 | 0.964 | 0.824 | 0.858 | 1.05 | 0.769
4 | HCC-44 | 0.817 | 0.894 | 0.946 | 0.921 | 0.889 | 0.942 | 0.822 | 0.783 | 0.825 | 0.78 | 0.964 | 1.03 | 1.03 | 0.945 | 1.02 | 1.01 | 0.939 | 0.806 | 1.05 | 1.04
5 | EKVX | 1.1 | 0.94 | 1.06 | 1.17 | 0.885 | 1.21 | 1.08 | 1.04 | 1.12 | 0.741 | 1.23 | 1.12 | 1.03 | 0.859 | 0.943 | 1.03 | 0.809 | 0.932 | 0.941 | 0.992
6 | NCI-H1651 | 0.834 | 0.826 | 1.02 | 0.893 | 0.856 | 1.05 | 1.1 | 0.899 |  | 0.597 | 0.978 | 0.995 | 1.01 | 0.918 | 0.983 | 0.973 | 0.941 | 0.921 | 0.961 | 0.915
7 | NCI-H1944 |  |  |  |  |  | 0.853 | 0.886 | 0.903 |  | 0.847 | 1.1 | 1.02 | 0.947 | 0.902 | 0.852 | 0.932 | 0.872 | 0.685 | 0.954 | 0.852
8 | NCI-H358 |  |  |  |  |  | 0.917 | 0.877 | 0.91 |  | 0.682 | 1 | 0.912 | 0.981 | 0.89 | 0.848 | 1.02 | 0.835 | 1.16 | 0.896 | 0.989
9 | NCI-H1793 |  |  |  |  |  | 0.83 | 0.683 | 0.901 |  | 0.665 | 0.859 | 0.83 | 1.04 |  | 0.864 | 0.569 | 0.812 |  | 0.745 | 0.762
10 | ChaGo-K-1 | 1.04 | 0.873 | 0.726 | 1.11 | 0.533 |  |  |  |  |  | 0.982 | 0.997 | 1.04 | 0.811 | 0.821 | 0.97 | 0.975 | 0.935 | 0.967 | 0.937
11 | NCI-H522 |  |  |  |  |  |  |  |  |  |  | 0.959 | 0.975 | 1.01 | 0.82 | 0.874 | 0.958 | 0.947 | 0.761 | 0.992 | 0.823
12 | NCI-H1650 | 0.207 | 0.238 | 0.23 | 0.205 | 0.186 |  |  |  |  |  | 0.9 | 1.04 | 0.951 | 0.831 | 0.845 | 0.835 | 0.858 | 0.986 | 0.935 | 0.979
13 | NCI-H1648 |  |  |  |  |  |  |  |  |  |  | 0.947 | 1.17 | 1.17 | 0.557 | 0.552 | 0.798 | 0.926 | 0.907 | 0.83 | 1.28
14 | SK-MES-1 |  |  |  |  |  | 0.885 | 0.998 | 1.03 | 0.859 | 0.922 | 1.12 | 1.22 | 1.02 | 1.1 | 1.06 | 0.991 | 0.939 | 0.969 | 0.981 | 0.983
15 | NCI-H2342 |  |  |  |  |  |  |  |  |  |  | 1.03 | 1.03 | 1.28 | 1.15 | 0.985 | 0.985 | 0.97 | 0.839 | 0.812 | 0.82
16 | SW 900 |  |  |  |  |  |  |  |  |  |  | 0.771 | 0.589 | 0.82 | 0.68 | 0.742 | 0.699 | 0.954 | 0.514 | 0.913 | 1.13
17 | LK-2 |  |  |  |  |  | 1.13 | 1.23 | 1.63 | 0.997 | 0.628 | 1.23 | 1.05 | 0.988 | 0.905 | 0.934 | 0.78 | 0.918 | 0.685 | 0.883 | 0.778
18 | NCI-H1395 |  |  |  |  |  | 1.07 | 1.01 | 1.04 |  | 0.991 | 0.879 | 0.953 | 0.884 | 0.534 | 0.791 | 0.86 | 0.795 | 0.672 | 0.975 | 0.761
19 | A549 |  |  |  |  |  | 0.795 | 0.767 | 0.751 | 0.936 | 0.642 | 1.06 | 1.07 | 0.978 | 0.937 | 1.01 | 0.979 | 0.86 | 0.974 | 1.02 | 0.911
20 | NCI-H2170 |  |  |  |  |  | 0.905 | 0.799 | 0.84 | 0.777 | 0.772 | 1.24 | 1.15 | 1.07 | 0.996 | 1.04 | 0.911 | 0.975 | 0.851 | 0.921 | 0.718
